pIC50: −log10 of the molar value.
Experiments:
IL-1β release = IL-1β release assay (THP-1 cells, PMA, LPS, nigericin); type: cell-based; settings: Homo sapiens, LPS 250 ng/mL, nigericin 20 μM, cleaved IL-1β in media
Description: Approximately 1.5 million THP-1 cells were plated in each well of a 6-well TC plate and incubated with 40 nM PMA in RPMI (10% FBS, 1% Penstrep) for 24 hours. The media was then removed and cells were rested in RPMI (10% FBS, 1% Penstrep) for 24 hours after which time the media was removed and cells were pre-treated for 2 hours with various concentrations of compounds of interest (typically serial 3-fold dilution in RPMI+5% FBS, concentrations ranging from 1 μM to 0.5 nM) in RPMI (5% FBS). The media was again removed and cells were incubated with 250 ng/mL LPS and compounds of interest (concentrations as above) in RMPI (5% FBS) for 2 hours. The media was removed for a last time and cells were incubated with 20 μM nigericin and compounds of interest (concentrations as above) in Opti-MEM for 30 minutes. Cell media was then collected and the amount of cleaved IL-1β was determined using a JESS instrument (Protein Simple) and standard protocols. Cleaved Il-1β antibody was obtained from Cell Signaling (catalogue #83186S) and was used at 1:20 dilution in antibody diluent 2. Protein Simple 1× anti-Rabbit HRP secondary antibody was used along with Protein Simple luminol and peroxide for chemiluminescent detection. Primary antibody incubation time was increased from 30 minutes to 60 minutes.

[1] = target: T1, full-length recombinant human NEK7 (Homo sapiens, UniProt Q8TDX7); experiment: NEK7 enzymatic assay; type: biochemical; settings: recombinant human NEK7, casein substrate, radiolabelled ATP
T1 construct: full-length recombinant human NEK7; GST (N); purchased SignalChem NO9-10G; host or cells: Sf9 insect cells (baculovirus)
T1 sequence (Q8TDX7 whole entry): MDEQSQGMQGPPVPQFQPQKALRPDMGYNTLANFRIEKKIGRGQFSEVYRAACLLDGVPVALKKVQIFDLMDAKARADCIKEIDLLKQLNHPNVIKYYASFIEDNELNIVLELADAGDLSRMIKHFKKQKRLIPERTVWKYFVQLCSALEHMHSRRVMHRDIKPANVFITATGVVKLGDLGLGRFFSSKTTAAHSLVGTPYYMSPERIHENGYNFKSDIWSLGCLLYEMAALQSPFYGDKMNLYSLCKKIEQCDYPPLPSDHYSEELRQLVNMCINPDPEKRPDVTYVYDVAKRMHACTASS
Description: Casein substrate (from bovine milk, hydrolyzed and partially dephosphorylated mixture of α, β and κ caseins, obtained from Sigma Aldrich, catalogue #C4765, diluted in distilled water to a final concentration of 1 mg/mL) and full-length recombinant human NEK7 (expressed by baculovirus in Sf9 insect cells using a N-terminal GST tag, obtained from SignalChem, catalogue #NO9-10G, 0.1 μg/μL) were mixed in assay buffer (20 mM Hepes pH 7.5, 10 mM MgCl2, 1 mM EGTA, 0.02% Brij35, 0.02 mg/ml BSA, 0.1 mM Na3VO4, 2 mM DTT, 1% DMSO). Compounds of interest (serial 3-fold dilution in DMSO from 10 μM to 0.5 nM) or vehicle (1% DMSO) were dispensed into the kinase reaction mixture by Acoustic technology (Echo550; nanoliter range). After incubation at room temperature for 20 minutes, the kinase reaction was initiated by addition of [^33P]-ATP (specific activity 10 μCi/μl) and the mixture was incubated at room temperature for 2 hours. The reaction was then stopped by spotting the reaction mixture on strips of phosphocellulose P81 paper. Following washing, the radioactivity of the P81 paper was measured and kinase activity data were expressed as the percent remaining kinase activity in test samples compared to vehicle reactions. IC50 values and curve fits were obtained using Prism (GraphPad Software).
Casein substrate (from bovine milk, hydrolyzed and partially dephosphorylated mixture of α, β and κ caseins, obtained from Sigma Aldrich, catalogue #C4765, diluted in distilled water to a final concentration of 1 mg/mL, assay concentration 20 μM) and full-length recombinant human Nek7 (expressed by baculovirus in Sf9 insect cells using a N-terminal GST tag, obtained from SignalChem, catalogue #NO9-10G, 0.1 μg/μL, assay concentration 70 nM) were mixed in assay buffer (20 mM Hepes pH 7.5, 10 mM MgCl2, 1 mM EGTA, 0.02% Brij35, 0.02 mg/ml BSA, 0.1 mM […], 2 mM DTT, 1% DMSO). Compounds of interest (in DMSO, serial 3-fold dilution from 10 μM to 0.5 nM) or control (1% DMSO) were dispensed into the kinase reaction mixture by Acoustic technology (Echo550; nanoliter range). After incubation at room temperature for 20 minutes, the kinase reaction was initiated by addition of [^32P]-ATP (Specific activity 10 μCi/μl) and the mixture was incubated at room temperature for 2 hours. The reaction was then stopped by spotting the reaction mixture on strips of phosphocellulose P81 paper. Following washing, the radioactivity of the P81 paper was measured and kinase activity data were expressed as the percent remaining kinase activity in test samples compared to vehicle (dimethyl sulfoxide) reactions. IC50 values and curve fits were obtained using Prism (GraphPad Software).

pIC50 (IL-1β release) | pIC50 [1] | Structure (SMILES)
< 6.00 |  | CN1CCC(Oc2ncc(NC(=O)Nc3ccc(-c4cn(C5CC5)c5ncnc(N)c45)cc3F)cc2C(F)(F)F)CC1 [Example I-61, 1-(4-(4-amino-7-cyclopropyl-7H-pyrrolo[2,3-d]pyrimidin-5-yl)-2-fluorophenyl)-3-(6-((1-methylpiperidin-4-yl)oxy)-5-(trifluoromethyl)pyridin-3-yl)urea]
< 6.00 | < 5.70 | CN1CCN(Cc2ccc(NC(=O)Nc3ccc(-c4cn(C5CC5)c5ncnc(N)c45)cc3F)c(C(F)(F)F)c2)CC1 [Example I-16, 1-(4-(4-amino-7-cyclopropyl-7H-pyrrolo[2,3-d]pyrimidin-5-yl)-2-fluorophenyl)-3-(4-((4-methylpiperazin-1-yl)methyl)-2-(trifluoromethyl)phenyl)urea]
< 6.00 | < 5.70 | CC(c1ccc(NC(=O)Nc2ccc(-c3cn(C4CC4)c4ncnc(N)c34)cc2F)cc1C(F)(F)F)N1CCN(C)CC1 (centres unmarked) [Example I-6, 1-(4-(4-amino-7-cyclopropyl-7H-pyrrolo[2,3-d]pyrimidin-5-yl)-2-fluorophenyl)-3-(4-(1-(4-methylpiperazin-1-yl)ethyl)-3-(trifluoromethyl)phenyl)urea]
6.60 to 7.30 | 6.30 to 7.00 | Nc1ncnc2c1c(-c1ccc(NC(=O)Nc3ccc(OC4CCN(C5COC5)CC4)c(C(F)(F)F)c3)c(F)c1)cn2C1CC1 [Example I-83, 1-(4-(4-amino-7-cyclopropyl-7H-pyrrolo[2,3-d]pyrimidin-5-yl)-2-fluorophenyl)-3-(4-((1-(oxetan-3-yl)piperidin-4-yl)oxy)-3-(trifluoromethyl)phenyl)urea]
6.00 to 6.60 |  | Nc1ncnc2c1c(-c1ccc(NC(=O)Nc3ccc(CN4CCOCC4)c(C(F)(F)F)c3)c(F)c1)cn2C1CC1 [Example I-32, 1-(4-(4-amino-7-cyclopropyl-7H-pyrrolo[2,3-d]pyrimidin-5-yl)-2-fluorophenyl)-3-(4-(morpholinomethyl)-3-(trifluoromethyl)phenyl)urea]
> 7.30 | > 7.00 | CN1CCN(Cc2ccc(NC(=O)Nc3ccc(-c4cn(C5CC5)c5ncnc(N)c45)cc3F)cc2C(F)(F)F)CC1 [Example I-34, 1-(4-(4-amino-7-cyclopropyl-7H-pyrrolo[2,3-d]pyrimidin-5-yl)-2-fluorophenyl)-3-(4-((4-methylpiperazin-1-yl)methyl)-3-(trifluoromethyl)phenyl)urea]
6.60 to 7.30 | > 7.00 | CN1CCN(Cc2ccc(NC(=O)Nc3ccc(-c4cn(C5CCN(S(=O)(=O)C6CC6)CC5)c5ncnc(N)c45)cc3F)cc2C(F)(F)F)CC1 [Example I-102, 1-(4-(4-amino-7-(1-(cyclopropylsulfonyl)piperidin-4-yl)-7H-pyrrolo[2,3-d]pyrimidin-5-yl)-2-fluorophenyl)-3-(4-((4-methylpiperazin-1-yl)methyl)-3-(trifluoromethyl)phenyl)urea]
> 7.30 | > 7.00 | CN1CCN(Cc2ccc(NC(=O)Nc3ccc(-c4nn(C5CC5)c5ccnc(N)c45)cc3F)cc2C(F)(F)F)CC1 [Example I-31, 1-(4-(4-amino-1-cyclopropyl-1H-pyrazolo[4,3-c]pyridin-3-yl)-2-fluorophenyl)-3-(4-((4-methylpiperazin-1-yl)methyl)-3-(trifluoromethyl)phenyl)urea]
6.60 to 7.30 | > 7.00 | CN1CCN(Cc2ccc(NC(=O)Nc3ccc(-c4cn(C5CCN(S(C)(=O)=O)CC5)c5ncnc(N)c45)cc3F)cc2C(F)(F)F)CC1 [Example I-101, 1-(4-(4-amino-7-(1-(methylsulfonyl)piperidin-4-yl)-7H-pyrrolo[2,3-d]pyrimidin-5-yl)-2-fluorophenyl)-3-(4-((4-methylpiperazin-1-yl)methyl)-3-(trifluoromethyl)phenyl)urea]
> 7.30 | > 7.00 | Nc1ncnc2c1c(-c1ccc(NC(=O)Nc3ccc(CN4CCN(CCF)CC4)c(C(F)(F)F)c3)c(F)c1)cn2C1CC1 [Example I-84, 1-(4-(4-amino-7-cyclopropyl-7H-pyrrolo[2,3-d]pyrimidin-5-yl)-2-fluorophenyl)-3-(4-((4-(2-fluoroethyl)piperazin-1-yl)methyl)-3-(trifluoromethyl)phenyl)urea]
> 7.30 | > 7.00 | CN1CCN(Cc2ccc(NC(=O)Nc3ccc(-c4nn(CC(C)(C)O)c5ncnc(N)c45)cc3F)cc2C(F)(F)F)CC1 [Example I-29, 1-(4-(4-amino-1-(2-hydroxy-2-methylpropyl)-1H-pyrazolo[3,4-d]pyrimidin-3-yl)-2-fluorophenyl)-3-(4-((4-methylpiperazin-1-yl)methyl)-3-(trifluoromethyl)phenyl)urea]
> 7.30 | > 7.00 | CN1CCN(Cc2ccc(NC(=O)Nc3ccc(-c4nn(C5CC5)c5ncnc(N)c45)cc3F)cc2C(F)(F)F)CC1 [Example I-28, 1-(4-(4-amino-1-cyclopropyl-1H-pyrazolo[3,4-d]pyrimidin-3-yl)-2-fluorophenyl)-3-(4-((4-methylpiperazin-1-yl)methyl)-3-(trifluoromethyl)phenyl)urea]
> 7.30 | > 7.00 | CN1CCN(Cc2ccc(NC(=O)Nc3ccc(-c4cn(C5CCN(C)C5)c5ncnc(N)c45)cc3F)cc2C(F)(F)F)CC1 (centres unmarked) [Example I-20, 1-(4-(4-amino-7-(1-methylpyrrolidin-3-yl)-7H-pyrrolo[2,3-d]pyrimidin-5-yl)-2-fluorophenyl)-3-(4-((4-methylpiperazin-1-yl)methyl)-3-(trifluoromethyl)phenyl)urea]
6.60 to 7.30 | > 7.00 | COCCN1CCN(Cc2ccc(NC(=O)Nc3ccc(-c4cn(C5CC5)c5ncnc(N)c45)cc3F)cc2C(F)(F)F)CC1 [Example I-43, 1-(4-(4-amino-7-cyclopropyl-7H-pyrrolo[2,3-d]pyrimidin-5-yl)-2-fluorophenyl)-3-(4-((4-(2-methoxyethyl)piperazin-1-yl)methyl)-3-(trifluoromethyl)phenyl)urea]
> 7.30 | > 7.00 | CN1CCN(Cc2ccc(NC(=O)Nc3ccc(-c4cn(CC(C)(C)O)c5ncnc(N)c45)cc3F)cc2C(F)(F)F)CC1 [Example I-15, 1-(4-(4-amino-7-(2-hydroxy-2-methylpropyl)-7H-pyrrolo[2,3-d]pyrimidin-5-yl)-2-fluorophenyl)-3-(4-((4-methylpiperazin-1-yl)methyl)-3-(trifluoromethyl)phenyl)urea]
6.00 to 6.60 | > 7.00 | Nc1ncnc2c1c(-c1ccc(NC(=O)Nc3ccc(CN4CCNCC45CC5)c(C(F)(F)F)c3)c(F)c1)cn2C1CC1 [Example I-66, 1-(4-((4,7-diazaspiro[2.5]octan-4-yl)methyl)-3-(trifluoromethyl)phenyl)-3-(4-(4-amino-7-cyclopropyl-7H-pyrrolo[2,3-d]pyrimidin-5-yl)-2-fluorophenyl)urea]
6.00 to 6.60 |  | CN1CCN(c2ccc(NC(=O)Nc3ccc(-c4cn(C5CC5)c5ncnc(N)c45)cc3F)cc2C(F)(F)F)CC1 [Example I-3]
6.60 to 7.30 |  | CN1CCN(Cc2ccc(NC(=O)Nc3ccc(-c4nn(C5CC5)c5ccnc(N)c45)cn3)cc2C(F)(F)F)CC1 [Example I-51, 1-(5-(4-amino-1-cyclopropyl-1H-pyrazolo[4,3-c]pyridin-3-yl)pyridin-2-yl)-3-(4-((4-methylpiperazin-1-yl)methyl)-3-(trifluoromethyl)phenyl)urea]
